The target in assay [1] is Protein kinase C (PKC). The experiment in a line: Tested for inhibition of protein kinase C from rat brain.
Assay [2] has as its target T1, cGMP-dependent protein kinase 1 (Bos taurus, UniProt P00516).
T1 sequence (P00516 whole entry): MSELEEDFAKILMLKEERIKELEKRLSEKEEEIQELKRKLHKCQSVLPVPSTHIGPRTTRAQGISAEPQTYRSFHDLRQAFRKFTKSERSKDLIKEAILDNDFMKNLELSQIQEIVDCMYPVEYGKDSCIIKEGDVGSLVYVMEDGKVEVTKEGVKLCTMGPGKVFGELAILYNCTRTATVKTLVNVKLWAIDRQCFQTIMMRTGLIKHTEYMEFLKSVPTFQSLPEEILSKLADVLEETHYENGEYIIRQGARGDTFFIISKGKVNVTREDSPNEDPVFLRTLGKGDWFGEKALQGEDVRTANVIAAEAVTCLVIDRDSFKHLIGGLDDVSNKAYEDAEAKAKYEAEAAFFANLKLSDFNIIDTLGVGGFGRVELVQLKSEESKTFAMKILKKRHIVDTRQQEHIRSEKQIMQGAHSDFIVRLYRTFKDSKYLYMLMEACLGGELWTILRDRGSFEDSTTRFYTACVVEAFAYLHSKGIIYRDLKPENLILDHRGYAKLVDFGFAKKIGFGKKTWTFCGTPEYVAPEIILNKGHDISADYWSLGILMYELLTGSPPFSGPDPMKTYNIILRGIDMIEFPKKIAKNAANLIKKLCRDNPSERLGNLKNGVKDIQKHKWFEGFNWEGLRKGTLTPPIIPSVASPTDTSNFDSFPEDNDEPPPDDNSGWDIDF
The experiment in a line: Tested for inhibition of cGMP-dependent protein kinase from bovine lung.

Assay [3] in a line: Tested for inhibition of catalytic subunit of cAMP-dependent protein kinase from bovine heart.
Assay [4] addresses Tyrosine-protein kinase Blk (Mus musculus, UniProt P16277). The experiment in a line: Tested for inhibition of general tyrosine-specific protein kinase activity from murine B cell lysate. Format: cell-based.

The IC50 is the concentration that gives 50% inhibition.

Molecules are shown by their SMILES.

Tyrosine-protein kinase Blk, sequence (P16277 whole entry): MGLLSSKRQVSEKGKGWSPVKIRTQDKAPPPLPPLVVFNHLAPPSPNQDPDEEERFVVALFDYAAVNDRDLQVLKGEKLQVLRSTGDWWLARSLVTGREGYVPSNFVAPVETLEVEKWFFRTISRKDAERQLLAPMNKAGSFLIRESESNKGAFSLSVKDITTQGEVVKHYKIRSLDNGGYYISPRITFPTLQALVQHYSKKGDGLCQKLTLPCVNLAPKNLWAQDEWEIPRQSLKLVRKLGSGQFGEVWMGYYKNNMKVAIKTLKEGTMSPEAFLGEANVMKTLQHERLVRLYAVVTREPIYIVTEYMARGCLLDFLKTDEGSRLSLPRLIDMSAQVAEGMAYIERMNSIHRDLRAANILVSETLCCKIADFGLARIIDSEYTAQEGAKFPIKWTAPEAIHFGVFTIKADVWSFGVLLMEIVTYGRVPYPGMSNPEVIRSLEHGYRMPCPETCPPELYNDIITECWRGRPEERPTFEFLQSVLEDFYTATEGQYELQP

In the case of `COc1ccc2c(c1)c1c3c(c4c5ccccc5n(C)c4c1n2CCCC#N)C(=O)NC3=O`, the values for the IC50 in assay [1], in assay [2] and in assay [3] were 5 nM, 1000 nM and 200 nM, respectively.

Consider `CN(C)CCCn1c2ccc(O)cc2c2c3c(c4c5cc(O)ccc5[nH]c4c21)C(=O)NC3`, for which the IC50 in assay [1] amounted to 16 nM.

As to `CN(C)CCCn1c2ccccc2c2c3c(c4c5ccccc5[nH]c4c21)C(=O)NC3`, the values for the IC50 in assay [1], in assay [2] and in assay [3] were 230 nM, 420 nM and more than 10000 nM, respectively.

For the compound `Cn1c2ccccc2c2c3c(c4c5ccccc5n(CCC#N)c4c21)C(=O)NC3=O`, the IC50 in assay [1] is 38 nM; in assay [2], 7200 nM; in assay [3] it was more than 30000 nM.

`Cn1c2ccccc2c2c3c(c4c5ccccc5n(CCCN)c4c21)CNC3=O`: the IC50 came out at 32 nM in assay [1], 220 nM in assay [2] and 750 nM in assay [3].

With `COc1ccc2c(c1)c1c3c(c4c5ccccc5n(C)c4c1n2CCC#N)C(=O)NC3=O`, the IC50 was 2 nM in assay [1], more than 10000 nM in assay [4], more than 3000 nM in assay [2] and 400 nM in assay [3].

For `Cn1c2ccc(O)cc2c2c3c(c4c5cc(O)ccc5n(CCC#N)c4c21)CNC3=O`, the IC50 in assay [1] was determined as 9 nM.

Regarding `COc1ccc2c(c1)c1c3c(c4c5ccccc5n(CCC#N)c4c1n2C)C(=O)NC3=O`, the IC50 in assay [1] is 16 nM.

Regarding `COc1ccc2c(c1)c1c3c(c4c5cc(OC)ccc5n(CCC#N)c4c1n2C)CNC3=O`, the IC50 in assay [1] was 56 nM; in assay [4], more than 10000 nM; in assay [2], 2000 nM; in assay [3], 45000 nM.

On to `CN(C)CCCn1c2ccccc2c2c3c(c4c5ccccc5n(C)c4c21)C(=O)NC3`, for which the IC50 came to 45 nM in assay [1], 870 nM in assay [2] and 9900 nM in assay [3].

Regarding `COc1ccc2c(c1)c1c3c(c4c5ccccc5n(C)c4c1n2CC(O)CN(C)C)C(=O)NC3` (centres undefined), the IC50 in assay [1] is 86 nM; in assay [4] it was more than 10000 nM; in assay [2], 23000 nM; in assay [3], 15000 nM.

As for `COc1ccc2[nH]c3c(c4c(c5c6cc(OC)ccc6n(CCCN(C)C)c35)CNC4=O)c2c1`, in assay [1], the IC50 was determined as 550 nM.

Regarding `CN(C)CC(O)Cn1c2ccccc2c2c3c(c4c5ccccc5n(C)c4c21)C(=O)NC3=O` (centres undefined), the IC50 in assay [1] was found to be 21 nM; in assay [2] it was 2100 nM; in assay [3] it was 6300 nM.

In the case of `COc1ccc2c(c1)c1c3c(c4c5ccccc5n(C)c4c1n2CC(O)CN(C)C)C(=O)NC3=O` (centres undefined), the IC50 was 4 nM in assay [1], 4800 nM in assay [2] and 510 nM in assay [3].

In assay [1], `COc1ccc2c(c1)c1c3c(c4c5cc(OC)ccc5n(CCC#N)c4c1n2C)C(=O)NC3=O` yielded an IC50 of 6 nM.

`Cn1c2ccccc2c2c3c(c4c5ccccc5n(CCC#N)c4c21)CNC3=O` [GO-6976]: the values for the IC50 in assay [1] (read-out: IC50) and in assay [3] were 20 nM and more than 100000 nM, respectively.

Take `CN(C)CC(O)Cn1c2ccccc2c2c3c(c4c5ccccc5n(C)c4c21)C(=O)NC3` (centres undefined): the IC50 is 30 nM in assay [1], more than 100000 nM in assay [4], 9400 nM in assay [2] and 24000 nM in assay [3].

These data come from ChEMBL document CHEMBL1128140, “Novel indolocarbazole protein kinase c inhibitors with improved biochemical and physicochemical properties” (Bioorg Med Chem Lett, 1995).
